Test results: patent publication US7176313B2, “Anti acid-fast bacterial agent containing pyridonecarboxylic acids as active ingredient” (Daiichi Pharmaceutical Co., Ltd., priority 2000, dated 2007)
In brackets after ≈: the same amount, converted by molar mass. Like-named read-outs stand apart in the source and are kept apart here.

Key:
[1] = tested on: reticulocytes (RC); assay: Peripheral blood micronucleus test; format: in vivo, Male Slc:ddY mice; settings: mice, intravenous
Protocol: Peripheral Blood Micronucleus Test
Used animals and administration method are similar to those in the mouse acute toxicity test. Samples were prepared by collecting 5 μl each of blood sample from the tail vein at 24 and 48 hours after the administration, dropping the blood on a slide at which 0.1% acridine orange solution had been applied in advance, sealing the slide with a cover glass immediately, and allowing it to stand in a refrigerator for 24 hours.

[2] = Mouse acute toxicity test; format: in vivo, Male Slc:ddY mice; settings: intravenous
Protocol: Mouse Acute Toxicity Test
Male Slc:ddY mice at age of 5-weeks were used as test animals. For dissolving the compounds, 0.1 mol/l NaOH (in saline) was used. Mice were administered intravenously at a rate of 0.1 ml/30 seconds at a dosing volume of 10 ml/kg.

[3] = tested on: Mycobacterium tuberculosis (RFP sensitive); assay: Antibacterial activity (MIC) against Mycobacterium tuberculosis (RFP sensitive); format: cell-based
[4] = tested on: M. avium; assay: Antibacterial activity (MIC) against M. avium; format: cell-based, Mycobacterium avium
Protocol: Antibacterial activity of the compounds of the invention was measured in accordance with the method described in the literature of Antimicrob. […] In the tables, “OFLX” is an abbreviation of “OFLOXAIN”.

[5] = tested on: M. intracellulare; assay: Antibacterial activity (MIC) against M. intracellulare; format: cell-based, Mycobacterium intracellulare
Protocol: Antibacterial activity of the compounds of the invention was measured in accordance with the method described in the literature of Antimicrob. Agents and Chemother., 38, 2877 (1994), and the results are shown in Tables 3 to 8 in terms of MIC (μg/ml). In the tables, “OFLX” is an abbreviation of “OFLOXAIN”.

[6] = M. intracellulare N-338, Table 3
[7] = M. intracellulare N-345, Table 3

For `COc1c(C2CNC3(CCC3)CN2)c(F)cc2c(=O)c(C(=O)O)cn([C@@H]3C[C@@H]3F)c12` (stereo partly drawn) [Compd. 23, 7-{5,8-Diazaspiro[3.5]nonan-7-yl}-6-fluoro-1-[(1R,2S)-2-fluorocyclopropyl]-1,4-dihydro-8-methoxy-4-oxoquinoline-3-carboxylic acid], the melting point was 138 to 140 °C (dec.).
`COc1c(N2CCNC(C3CC3)C2)c(F)cc2c(=O)c(C(=O)O)cn([C@@H]3C[C@@H]3F)c12` (stereo partly drawn) [Compd. 24, 7-(3-Cyclopropylpiperazin-1-yl)-6-fluoro-1-[(1R,2S)-2-fluorocyclopropyl]-1,4-dihydro-8-methoxy-4-oxoquinoline-3-carboxylic acid] gave a melting point of 136 to 139 °C.
With `C[C@H]1COc2c(N3CCN[C@@H](c4ccccc4)C3)c(F)cc3c(=O)c(C(=O)O)cn1c23` [Compd. 27, 9-Fluoro-2,3-dihydro-3-(S)-methyl-7-oxo-10-[3-(S)-phenyl-1-piperazinyl]-7H-pyrido[1.2.3-de][1,4]benzoxazine-6-carboxylic acid] the “MNRC (%) mean ±S.E. 24 hours” value ([1]; 100 mg/kg, 24 hours after administration) was 0.20 ± 0.03%, the “MNRC (%) mean ±S.E. 48 hours” value ([1]; 100 mg/kg, 48 hours after administration) was 0.18 ± 0.04% and the micronucleus induction ([1]; (untreated control: 0.12±0.08)) was “weak”. The “survival of mice after administration” value ([2]; text summary of Table 9) was “all mice were survived”, the “Mortality (dead/ test)” value ([2]; mice, 100 mg/kg) was 0/5 and the acute toxicity ([2]; mice, text summary of Table 9) was “relatively weak”.
For `COc1c(N2CCN3CCC2C3)c(F)cc2c(=O)c(C(=O)O)cn([C@@H]3C[C@@H]3F)c12` (stereo partly drawn) [Compd. 28, 7-{1,4-Diazabicyclo[3.2.1]octan-4-yl}-6-fluoro-1-[(1R,2S)-2-fluorocyclopropyl]-1,4-dihydro-8-methoxy-4-oxoquinoline-3-carboxylic acid], the melting point was 195 to 198 °C (dec.).
For `CC1COc2c(N3CCN(C)CC3)c(F)cc3c(=O)c(C(=O)O)cn1c23` (stereo not drawn) [OFLX, OFLOXAIN, reference compound], the MIC ([3]; M. tuberculosis H37Rv, Table 5) was 0.39 µg/mL (≈ 1.08 µM), the MIC ([3]; M. tuberculosis H37Rv, Table 6 (series 2)) was 1.0 µg/mL (≈ 2.77 µM) and the MIC ([3]; M. tuberculosis Kurono, Table 5) was 0.39 µg/mL (≈ 1.08 µM). It also gave an MIC ([3]; M. tuberculosis Kurono, Table 6 (series 2)) of 0.50 µg/mL (≈ 1.38 µM), an MIC ([3]; M. tuberculosis No. 40, Table 5) of 0.39 µg/mL (≈ 1.08 µM) and an MIC ([3]; M. tuberculosis No. 40, Table 6 (series 2)) of 1.0 µg/mL (≈ 2.77 µM). For the same compound, the MIC ([3]; M. tuberculosis No. 41, Table 5) was 0.10 µg/mL (≈ 0.277 µM), the MIC ([3]; M. tuberculosis No. 41, Table 6 (series 2)) was 0.25 µg/mL (≈ 0.692 µM) and the MIC ([3]; M. tuberculosis No. 43, Table 6 (series 2)) was 8.0 µg/mL (≈ 22.1 µM). It also gave an MIC ([3]; M. tuberculosis No. 68, Table 5) of 0.39 µg/mL (≈ 1.08 µM), an MIC ([3]; M. tuberculosis No. 68, Table 6 (series 2)) of 1.0 µg/mL (≈ 2.77 µM) and an MIC ([4]; M. avium N-357, Table 3) of 3.13 µg/mL (≈ 8.66 µM). It also gave an MIC ([4]; M. avium N-357, Table 4 (series 2)) of 4.0 µg/mL (≈ 11.1 µM), an MIC ([4]; M. avium N-444, Table 3) of 25 µg/mL (≈ 69.2 µM) and an MIC ([4]; M. avium N-444, Table 4 (series 2)) of 32 µg/mL (≈ 88.6 µM). For the same compound, the MIC ([4]; M. avium N-458, Table 3) was 3.13 µg/mL (≈ 8.66 µM), the MIC ([4]; M. avium N-458, Table 4 (series 2)) was 4.0 µg/mL (≈ 11.1 µM) and the MIC ([4]; M. avium N-472, Table 3) was 50 µg/mL (≈ 138 µM). For the same compound, the MIC ([4]; M. avium N-472, Table 4 (series 2)) was 128 µg/mL (≈ 354 µM), the MIC ([5]; M. intracellulare N-294, Table 3) was 12.5 µg/mL (≈ 34.6 µM) and the MIC ([5]; M. intracellulare N-294, Table 4 (series 2)) was 8.0 µg/mL (≈ 22.1 µM). It also gave an MIC ([5]; M. intracellulare N-313, Table 3) of 6.25 µg/mL (≈ 17.3 µM), an MIC ([5]; M. intracellulare N-313, Table 4 (series 2)) of 1.0 µg/mL (≈ 2.77 µM) and an MIC [5, 6] of 25 µg/mL (≈ 69.2 µM). For the same compound, the MIC ([5]; M. intracellulare N-338, Table 4 (series 2)) was 2.0 µg/mL (≈ 5.53 µM), the MIC [5, 7] was 25 µg/mL (≈ 69.2 µM) and the MIC ([5]; M. intracellulare N-345, Table 4 (series 2)) was 2.0 µg/mL (≈ 5.53 µM).
With `CO[C@H]1/C=C/O[C@@]2(C)Oc3c(C)c(O)c4c(O)c(c(/C=N/N5CCN(C)CC5)c(O)c4c3C2=O)NC(=O)/C(C)=C\C=C\[C@H](C)[C@H](O)[C@@H](C)[C@@H](O)[C@@H](C)[C@H](OC(C)=O)[C@@H]1C` [RFP, rifampicin, reference compound] the MIC ([3]; Mycobacterium tuberculosis, H37RV, M. tuberculosis H37Rv, Table 5, read-out: MIC) was 0.2 µg/mL (≈ 0.243 µM), the MIC ([3]; Mycobacterium tuberculosis, M. tuberculosis Kurono, Table 5, read-out: MIC) was 0.1 µg/mL (≈ 0.122 µM) and the MIC ([3]; Mycobacterium tuberculosis, M. tuberculosis No. 40, Table 5, read-out: MIC) was 0.1 µg/mL (≈ 0.122 µM). The MIC ([3]; Mycobacterium tuberculosis, M. tuberculosis No. 41, Table 5, read-out: MIC) was 0.05 µg/mL (≈ 0.0608 µM), the MIC ([3]; Mycobacterium tuberculosis, M. tuberculosis No. 43, Table 5, read-out: MIC) was 3.13 µg/mL (≈ 3.8 µM) and the MIC ([3]; Mycobacterium tuberculosis, M. tuberculosis No. 68, Table 5, read-out: MIC) was 3.13 µg/mL (≈ 3.8 µM). It also gave an MIC ([4]; Mycobacterium avium, M. avium N-357, Table 3, read-out: MIC) of 50 µg/mL (≈ 60.8 µM), an MIC ([4]; Mycobacterium avium, M. avium N-458, Table 3, read-out: MIC) of 100 µg/mL (≈ 122 µM) and an MIC [5, 6] of 3.13 µg/mL (≈ 3.8 µM). For the same compound, the MIC [5, 7] was 3.13 µg/mL (≈ 3.8 µM), the MIC ([5]; Mycobacterium intracellulare, M. intracellulare N-313, Table 3, read-out: MIC) was 0.78 µg/mL (≈ 0.948 µM) and the MIC ([5]; Mycobacterium intracellulare, M. intracellulare N-294, Table 3, read-out: MIC) was 3.13 µg/mL (≈ 3.8 µM).
